Measurements taken from patent US20110251379A1, “COMPOUNDS USEFUL FOR TREATING NEURODEGENERATIVE DISORDERS” (Satori Pharmaceuticals, Inc., priority 2010, published 2011).

System: amyloid-beta (1-42) peptide
Assay: ELISA assay of amyloid-beta (1-42) in conditioned media of 2B7 cells
Assay type: cell-based
Details: for inhibition at 10 µM: Aβ-42, 10 umol/L; for IC50: 5 h, Aβ-42, 2B7 cells, 5 hours, read-out: IC50 range
Method: Compounds of the present invention, and extracts comprising said compounds, may be assayed as inhibitors of amyloid-beta (1-42) peptide in vitro or in vivo. Such assay methods are described in detail in U.S. Pat. No. 6,649,196, the entirety of which is hereby incorporated herein by reference.
In certain embodiments, provided compounds of the present invention, and extracts comprising said compounds, were assayed as inhibitors of amyloid-beta (1-42) peptide in vitro using an ELISA assay.
Capture Plate Prep: • 6E10 was diluted to 5.0 ug/mL in 100 mM NaHCO3 pH 8.2 (10 ug aliquot per 2 mL buffer); • 100 uL capture antibody solution was added to wells of 96 well plate; • Incubated overnight at 4° C. sealed; • Aspirated off capture antibody; and • Blocked with 250 uL of Blocking Buffer for 2-4 hours at rt sealed.
Conditioned Media: • Cultured 2B7 cells in 96 well plate with 250 uL of media per well until confluent; • Prepared serial dilution of compounds in DMSO at 100× the final desired concentration; • Washed wells with 2B7 cells lx with 250 uL of media; • Diluted DMSO stocks 1:100 into media and mix; and • Added 250 μL of media containing compounds (1% DMSO) to wells with 2B7 cells for 5 hours at 37° C.
Elisa Sample Prep: • Diluted conditioned media 1:2 into blocking buffer; • NOTE: If assaying for A-Beta 1-40 or total A-Beta, then diluted above sample 1:10 with a 50/50 mixture of non-conditioned media containing 1% DMSO and blocking buffer.
Standard Curve Sample Prep: • Diluted appropriate A-Beta peptide stock (stored in 1% NH4OH) to 200 μg/mL in blocking buffer; • Prepared a 1:2 serial dilution from the 200 μg/mL sample (150 μL into 150 μL blocking buffer); and • Added equal volume of standard curve samples to non-conditioned media with 1% DMSO.
Overnight Sample Incubation: • Aspirated blocking buffer from blocked plate; • Added 100 μL of samples to wells of plate (samples will be 50% media with 1% DMSO and 50% blocking buffer; and • Incubated overnight at 4° C. sealed.
Addition of Detection Antibody: • Aspirated off samples, wash 2× with 250 μL blocking buffer; and • Added 100 μL detection antibody labeled with HRP at 0.25 ug/mL in blocking buffer for 4 hours at room temperature sealed.
Final Wash and Readout: • Aspirated wells, wash 5× with 250 μL of PBS-T (2 minutes each wash at 30 RPM); • Added 100 μL TMB for 20 minutes; • Added 100 μL of 1M H3PO4; and • Read at 450 nm.
Coating Buffer (100 mM NaHCO3 pH 8.2)
PBS-T (PBS with 0.05% Tween-20)
Blocking Buffer (1% BSA in PBS-T)

[1] = Aβ-42, 20 umol/L, read-out: % Inhibition (range)

Compound	IC50	further results
C[C@@H]1CC[C@@]2(NC1)OC1C[C@H]3C4CC=C5C[C@@H](O)CC[C@]5(C)C4CC[C@]3(C)C1[C@@H]2C (stereo partly shown)	–	inhibition at 2.5 µM (Aβ-42, 2.5 umol/L, read-out: % Inhibition (range)): < 25%
C[C@@H]1C(O)CO[C@@]2(O)C[C@H]3[C@@H]4CC=C5C[C@@H](O[Si](C)(C)C(C)(C)C)CC[C@]5(C)[C@H]4CC[C@]3(C)[C@@H]12 (stereo partly shown)	–	inhibition at 10 µM (read-out: % Inhibition (range)): < 25%
C[C@@H]1C(I)COC2C[C@H]3[C@@H]4CC=C5C[C@@H](O)CC[C@]5(C)[C@H]4CC[C@]3(C)C21 (stereo partly shown)	–	inhibition at 10 µM (read-out: % Inhibition (range)): < 25%
CC(=O)O[C@H]1CC[C@]23C[C@]24CC[C@]2(C)C5C(C[C@@]2(C)C4CCC3C1(C)C)OC(O)(C(F)(F)F)C[C@H]5C (stereo partly shown)	–	inhibition at 10 µM (read-out: % Inhibition (range)): < 25%
CC(=O)O[C@H]1CC[C@]23C[C@]24CC[C@]2(C)C5C(C[C@@]2(C)[C@@H]4CC[C@H]3C1(C)C)OC(C(F)(F)F)=C[C@H]5C (stereo partly shown)	–	inhibition at 10 µM (read-out: % Inhibition (range)): < 25%
CC1O[C@@H]([C@H]2C[C@@H](C)C3C(O2)[C@H](O)[C@@]2(C)[C@@H]4CC[C@H]5C(C)(C)[C@@H](O)CC[C@@]56C[C@@]46CC[C@]32C)C(C)(C)O1 (stereo partly shown)	–	inhibition at 10 µM (read-out: % Inhibition (range)): < 25%
CC(=O)O[C@@H]([C@H]1C[C@@H](C)C2=C(O1)C(=O)[C@@]1(C)[C@@H]3CC[C@H]4C(C)(C)C(=O)CC[C@@]45C[C@@]35CC[C@]21C)C(C)(C)O	–	inhibition at 10 µM (read-out: % Inhibition (range)): < 25%
CC(=O)O[C@H]1CC[C@]23C[C@]24CC[C@]2(C)C5C(C[C@@]2(C)C4CCC3C1(C)C)OC(C(F)(F)F)=C[C@H]5C (stereo partly shown)	–	inhibition at 10 µM (read-out: % Inhibition (range)): < 25%
CC1COC2C[C@H]3[C@@H]4CCC5C[C@@H](O)CC[C@]5(C)[C@H]4CC[C@]3(C)C2[C@@H]1C (stereo partly shown)	–	inhibition at 10 µM (read-out: % Inhibition (range)): < 25%
C[C@@H]1C=C(C(F)(F)F)OC2C[C@@]3(C)C4CCC5C(C)(C)[C@@H](O)CC[C@@]56C[C@@]46CC[C@]3(C)C21 (stereo partly shown)	–	inhibition at 10 µM (read-out: % Inhibition (range)): 25 to 75%
CC(=O)O[C@@H]([C@H]1C[C@@H](C)C2C(O1)[C@H](O)[C@@]1(C)[C@@H]3CC[C@H]4C(C)(C)[C@@H](OC(=O)CN(C)C)CC[C@@]45C[C@@]35CC[C@]21C)C(C)(C)O (stereo partly shown)	≤ 1000 nM	–
CC(=O)O[C@@H]([C@H]1C[C@@H](C)C2C(O1)[C@H](O)[C@@]1(C)[C@@H]3CC[C@H]4C(C)(C)[C@@H](OC(=O)c5ccccn5)CC[C@@]45C[C@@]35CC[C@]21C)C(C)(C)O (stereo partly shown)	≤ 1000 nM	–
CC(=O)O[C@@H]([C@H]1C[C@@H](C)[C@H]2[C@H](O1)[C@H](O)[C@@]1(C)[C@@H]3CC[C@H]4C(C)(C)[C@@H](O[C@H]5CN(CCN(C)C)CCO5)CC[C@@]45C[C@@]35CC[C@]21C)C(C)(C)O	≤ 1000 nM	–
CC(=O)O[C@@H]([C@H]1C[C@@H](C)[C@H]2[C@H](O1)[C@H](O)[C@@]1(C)[C@@H]3CC[C@H]4C(C)(C)[C@@H](O[C@H]5CN(CCN6CCCC6)CCO5)CC[C@@]45C[C@@]35CC[C@]21C)C(C)(C)O	≤ 1000 nM	–
CC(=O)O[C@@H]([C@H]1C[C@@H](C)[C@H]2[C@H](O1)[C@H](O)[C@@]1(C)[C@@H]3CC[C@H]4C(C)(C)[C@@H](O[C@H]5CN(C6CCC6)CCO5)CC[C@@]45C[C@@]35CC[C@]21C)C(C)(C)O	≤ 1000 nM	–
CC(=O)O[C@@H]([C@H]1C[C@@H](C)[C@H]2[C@H](O1)[C@H](O)[C@@]1(C)[C@@H]3CC[C@H]4C(C)(C)[C@@H](O[C@H]5CN(CCO)CCO5)CC[C@@]45C[C@@]35CC[C@]21C)C(C)(C)O	≤ 1000 nM	–
CC(=O)O[C@@H]([C@H]1C[C@@H](C)[C@H]2[C@H](O1)[C@H](O)[C@@]1(C)[C@@H]3CC[C@H]4C(C)(C)[C@@H](O[C@H]5CN(CC(F)(F)F)CCO5)CC[C@@]45C[C@@]35CC[C@]21C)C(C)(C)O	≤ 1000 nM	–

Compound	IC50	further results
CC(=O)O[C@@H]([C@H]1C[C@@H](C)[C@H]2[C@H](O1)/C(=N/O)[C@H]1C3CCC4C(C)(C)[C@@H](OC5OC[C@@H](O)[C@H](O)[C@H]5O)CC[C@@]45C[C@@]35CC[C@]21C)C(C)(C)O (stereo partly shown)	≤ 1000 nM	–
CC(=O)O[C@@H]([C@H]1C[C@@H](C)[C@H]2[C@H](O1)C1(SCCS1)[C@@]1(C)C3CCC4C(C)(C)[C@@H](O)CC[C@]4(C)C3=CC[C@]21C)C(C)(C)O (stereo partly shown)	1000 to 10000 nM	–
CC(=O)O[C@@H]([C@H]1C[C@@H](C)[C@H]2[C@H](O1)[C@H](O)[C@@]1(C)[C@@H]3CC[C@H]4C(C)(C)[C@@H](O[C@@H](CN(C)C)OCCN(C)C)CC[C@@]45C[C@@]35CC[C@]21C)C(C)(C)O	1000 to 10000 nM	–
CC(=O)O[C@@H]([C@H]1C[C@@H](C)[C@H]2[C@H](O1)[C@H](O)[C@@]1(C)[C@@H]3CC[C@H]4C(C)(C)[C@@H](O[C@H]5CN(C6COC6)CCO5)CC[C@@]45C[C@@]35CC[C@]21C)C(C)(C)O	≤ 1000 nM	–
CCN1CCO[C@@H](O[C@H]2CC[C@]34C[C@]35CC[C@]3(C)[C@@H]6[C@H](O[C@@H]([C@H](OC(C)=O)C(C)(C)O)C[C@H]6C)[C@H](O)[C@@]3(C)[C@@H]5CC[C@H]4C2(C)C)C1	≤ 1000 nM	–
CCCN1CCO[C@@H](O[C@H]2CC[C@]34C[C@]35CC[C@]3(C)[C@@H]6[C@H](O[C@@H]([C@H](OC(C)=O)C(C)(C)O)C[C@H]6C)[C@H](O)[C@@]3(C)[C@@H]5CC[C@H]4C2(C)C)C1	1000 to 10000 nM	–
CC(=O)O[C@@H]([C@H]1C[C@@H](C)[C@H]2[C@H](O1)[C@H](O)[C@@]1(C)[C@@H]3CC[C@H]4C(C)(C)C(OC(=O)c5ccncc5)CC[C@@]45C[C@@]35CC[C@]21C)C(C)(C)O (stereo partly shown)	≤ 1000 nM	–
CC(=O)O[C@@H]([C@H]1C[C@@H](C)[C@H]2[C@H](O1)[C@H](O)[C@@]1(C)[C@@H]3CC[C@H]4C(C)(C)C(OC(=O)[C@@H]5CCCN5)CC[C@@]45C[C@@]35CC[C@]21C)C(C)(C)O (stereo partly shown)	≤ 1000 nM	–
CC(=O)O[C@@H]([C@H]1C[C@@H](C)[C@H]2[C@H](O1)[C@H](O)[C@@]1(C)[C@@H]3CC[C@H]4C(C)(C)C(OC(=O)C5CCCO5)CC[C@@]45C[C@@]35CC[C@]21C)C(C)(C)O (stereo partly shown)	≤ 1000 nM	–
CC(C)C(O)[C@H]1C[C@@H](C)[C@H]2[C@H](O1)[C@H](O)[C@@]1(C)[C@@H]3CC[C@H]4C(C)(C)[C@@H](O)CC[C@@]45C[C@@]35CC[C@]21C (stereo partly shown)	> 10000 nM	inhibition at 20 µM [1]: < 25%
C[C@@H]1C[C@H]([C@H](O)C(C)(C)O)O[C@H]2[C@H]1[C@@]1(C)CC[C@@]34C[C@@]35CC[C@H](O[C@H]3CN(CC(N)=O)CCO3)C(C)(C)[C@@H]5CC[C@H]4[C@]1(C)[C@H]2O	> 10000 nM	inhibition at 20 µM [1]: < 25%
CC(=O)O[C@@H]([C@H]1C[C@@H](C)[C@H]2[C@H](O1)[C@H](O)[C@@]1(C)[C@@H]3CC[C@H]4C(C)(C)[C@@H](O[C@H]5CN(CCOCCOCCNC(=O)CCCC[C@@H]6SC[C@@H]7NC(=O)N[C@@H]76)CCO5)CC[C@@]45C[C@@]35CC[C@]21C)C(C)(C)O	≤ 1000 nM	–
CC(=O)O[C@@H]([C@H]1C[C@@H](C)[C@H]2[C@H](O1)[C@H](O)[C@@]1(C)[C@@H]3CC[C@H]4C(C)(C)[C@@H](OS(C)(=O)=O)CC[C@@]45C[C@@]35CC[C@]21C)C(C)(C)O	> 10000 nM	–
CC(=O)O[C@@H]([C@H]1C[C@@H](C)[C@H]2[C@H](O1)[C@H](O)[C@@]1(C)[C@@H]3CC[C@H]4C(C)(C)[C@@H](OC(=O)Cc5ccccn5)CC[C@@]45C[C@@]35CC[C@]21C)C(C)(C)O	≤ 1000 nM	–
C[C@@H]1C[C@H](CO)O[C@H]2C1[C@@]1(C)CC[C@@]34C[C@@]35CC[C@H](O[C@@H]3OC[C@@H](O)[C@H](O)[C@H]3O)C(C)(C)[C@@H]5CC[C@H]4[C@]1(C)[C@H]2O (stereo partly shown)	> 10000 nM	–
CC(=O)O[C@@H]([C@H]1C[C@@H](C)[C@H]2[C@H](O1)[C@H](O)[C@@]1(C)[C@@H]3CC[C@H]4C(C)(C)[C@@H](O[C@H]5CN(S(C)(=O)=O)CCO5)CC[C@@]45C[C@@]35CC[C@]21C)C(C)(C)O	≤ 1000 nM	–
CC1CC(C(O)C(C)(C)O)OC2C1C1(C)CCC34CC35CCC(OC3CN(C(=O)c6cc(F)cc(F)c6)CCO3)C(C)(C)C5CCC4C1(C)C2O (stereo not shown)	–	% Inhibition (range) (Aβ-42, 20 umol/L): E E (% inhibition of 25-75%); % Inhibition (range) (Aβ-42, 100 umol/L): E E (% inhibition of 25-75%)
